Data set [1] concerns the target T1, recombinant human SET protein (Homo sapiens, UniProt Q01105).
T1 construct: Genes encoding the full length of human SET (GenBank No.: AAA60318.1) was synthesized; made in house; host or cells: E. coli (pET-21a)
The data set is described as follows: Microscale thermophoresis (MST) binding to NT647-labeled SET. The settings on record: 15 μM NT647-labeled SET, PBS pH 8.0, 25 °C. How it is done:
Thermophoresis analysis was performed during 30 s on a NanoTemper Monolith NT.115 instrument (20% LED, 40% MST power) at 25 °C.
In general terms: In MST a laser heats a spot of the sample, and binding alters the fluorescence response.

The test system of the next data set is PP2A. Put plainly: PP2Ac immunoprecipitation phosphatase assay in K562 cells. The format is cell-based, human. Conditions: 10 μM, 24 h. On the procedure:
PP2A assay from whole cell lysates was carried out using commercial PP2Ac immunoprecipitation phosphatase assay kit (Millipore). Briefly, 200 μg protein lysates prepared as described above, 4 μg PP2Ac-specific antibody, and 40 μL protein A-agarose were added to TBS buffer (20 mM Tris-HCl, 150 mM NaCl, and 0.1% Tween 20) to a final volume of 500 μL and immunoprecipitation was carried out at 4 °C for 2 h. The immunoprecipitates were used in the phosphatase reaction following the manufacturer's protocol.

A further data set deals with T2, SET-PP2A interaction (Homo sapiens, UniProt Q01105).
T2 construct: SET and PP2Ac protein complexes were immunoprecipitated; endogenous in cells; host or cells: K562
T2 sequence (Q01105 whole entry): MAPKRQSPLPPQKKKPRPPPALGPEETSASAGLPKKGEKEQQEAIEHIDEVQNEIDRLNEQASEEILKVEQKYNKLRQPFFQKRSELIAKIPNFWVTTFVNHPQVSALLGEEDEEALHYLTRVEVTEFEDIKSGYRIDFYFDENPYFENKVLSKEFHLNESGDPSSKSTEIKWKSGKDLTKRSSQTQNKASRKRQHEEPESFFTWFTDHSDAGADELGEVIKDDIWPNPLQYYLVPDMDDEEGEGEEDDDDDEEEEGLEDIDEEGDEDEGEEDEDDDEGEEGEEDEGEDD
Put plainly: Co-immunoprecipitation of SET and PP2Ac in K562 cells. In kind it is cell-based. Conditions: 24 h. How it is done:
(§1) Protein samples (40 μg) were resolved on SDS-PAGE gels, transferred onto PVDF membranes (Millipore) and incubated overnight with primary antibodies to β-tubulin, BCR-ABL, p-BCR-ABL, SET, PP2Ac and p-PP2Ac. The membranes were incubated with horseradish peroxidase (HRP)-conjugated secondary antibody for 1 h, and the bands were visualized using an ECL detection kit following the manufacturer's instructions. For immunoprecipitation, cells were lysed in 20 mM Tris-HCl (pH 7.0), 150 mM NaCl, 1 mM EDTA, 1 mM MgCl and 0.5% NP-40 supplemented with a cocktail of protease and phosphatase inhibitors (Roche). Lysates (200 μg) were incubated with primary antibodies (1 μg) against SET or PP2Ac at 4 °C for 10 h, protein A/G plus agarose beads were then added for immunoprecipitation overnight at 4 °C. After wash, the immunoprecipitated proteins were separated by SDS-PAGE and analyzed by Western blotting.

A further data set has as its system BCR-ABL. The data set is described as follows: Western blot of BCR-ABL expression in K562 cells. In kind it is cell-based, human. How it is done:
as §1
In general terms: In western blotting, separated proteins are transferred to a membrane and probed.

A further data set deals with tubulin. The data set is described as follows: Microtubule assembly assay in K562 cells. The format is cell-based, human. The settings on record: 24 h. How it is done:
Separation of insoluble polymerized tubulin from soluble tubulin dimers and analysis of the effects of TGI1002 on tubulin polymerization were performed as described previously. In brief, K562 cells at a density of 1 × 10^6/100 mm^2 dishes were treated with indicated concentrations of TGI1002 at 24 h. Cells were washed with PBS for three times before adding polymerization lysate buffer containing 20 mM Tris-HCl (pH6.8), 1 mM MgCl2, 2 mM EGTA, […] aprotinin, […] leupeptin, 1 mM phenylmethylsulfonyl fluoride, 1 mM orthovanadate and 0.5% Nonidet. After centrifugation at 15,000 x g for 10 min at 4 °C, the pellets were resuspended in SDS-PAGE loading buffer and dissolved by heating at 95 °C for 10 min. Beta-tubulin was then Western blotted from both pellets (containing polymerized microtubules) and supernatants (containing depolymerized microtubules).

Data set [2] deals with BaF3-p210^T315I tumor xenografts. Put plainly: In vivo anti-tumor efficacy, subcutaneous xenograft. Also noted: species or system BALB/c mice. The settings on record: for inhibition of tumor growth, in terms of tumor volume: day 20 post-injection of BaF3-p210^T315I cells. On the procedure: BABL/c male mice from SLRC Experimental Animal Center were bred under pathogen-free conditions and were used for experiments at 6-8 weeks of age. Animal experiments were performed according to institutional and national guidelines. BaF3-p210^T315I cells were implanted subcutaneously into the right flank of nude mice (200 μL of a 1 × 10^7cells suspension in serum free medium). When tumors became large enough for caliper measurement, tumor volumes were calculated as (length × width^2) × 0.5. […] At the end of the experiments, tumors were dissected and photographed, and wet weights of each tumor were measured.

Data set [3] concerns K562 cells expressing SET shRNA. Put plainly: Cytotoxicity in K562 cells with stable SET knock-down (shRNA). Conditions: SET knock-down vs control K562 cells. In kind it is cell-based, human. On the procedure:
Twenty types of tumor cell lines were seeded at 4000 cells per well in 96-well plates. TGI1002 dissolved in phosphate saline was added to cells at final concentrations ranging from 0.5 nM to 100 μM for 120 h. Cell viability was measured with the CellTiter-Glo Luminescent Cell Viability Assay (Promega) according to the manufacturer's instructions. Luminescence was measured using an EnVision Multilabel Plate Reader (Perkin-Elmer). The cytotoxicity of TGI1002 was expressed as the percentage of luminescence relative to that of untreated cells.
Lentivirus-encoded shRNA against human SET (GenBank No.: NM_003011) and a noncoding gene (negative control) were prepared by Genechem and titered to 2 × 10^8 (TU/mL). K562 cells (1 × 10^4 cells/well) were seeded in 96-well plates overnight before transfection. The virus (10 μL) was mixed with 90 μL complete medium containing polybrene (5 μg/mL) and added to cells and incubated for 12 h at 37 °C. Then, the cells were incubated in fresh complete RPMI 1640 medium for 72 h, followed by incubation in complete medium containing puromycin (5 μg/mL). After 2 weeks of selection, individual clones were isolated, passaged and harvested for subsequent studies. Identification of stable SET-knockdown K562 cell line was performed by Western blotting. Effects of TGI1002 on cell viability of SET-knockdown K562 cells were studied as described above.

T1 sequence (Q01105 1-277 isoform Q01105-2): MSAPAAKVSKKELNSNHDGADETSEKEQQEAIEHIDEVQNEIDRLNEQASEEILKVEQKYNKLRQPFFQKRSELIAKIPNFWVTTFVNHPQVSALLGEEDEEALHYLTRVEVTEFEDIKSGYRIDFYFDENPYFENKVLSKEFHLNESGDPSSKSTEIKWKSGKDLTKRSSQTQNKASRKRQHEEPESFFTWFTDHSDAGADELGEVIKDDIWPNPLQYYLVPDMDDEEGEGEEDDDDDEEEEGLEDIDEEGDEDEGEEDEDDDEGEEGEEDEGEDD

As for `Cc1ccc(NC(=O)c2cccc(CN3CCN(C)CC3)c2)cc1Oc1nccc(-c2cccnc2)n1.Cl` [TGI1002, N-(4-methyl-3-((4-(pyridin-3-yl)-pyrimidin-2-yl)oxy)phenyl)-3-((4-methylpiperazin-1-yl)methyl)benzamide hydrochloride], the Kd (usually a measure of binding affinity in units of concentration) in data set [1] is 1660 ± 450 nM. In the data set on PP2A, the “PP2A activity enhanced compared to untreated cells” value turned out to be 144.67 ± 5.51%. For the same molecule, on SET-PP2A interaction, the “association between SET and PP2A” value was “trend of decrease”. Moreover, the “expression level of BCR-ABL” value in the data set on BCR-ABL was “not affected”. In the data set with tubulin, the “amounts of tubulin in depolymerized fraction S and polymerized fraction P” value was “not affected”. Moreover, the “inhibition of tumor growth, in terms of tumor volume” value in data set [2] (30 mg/kg i.p. daily) came to 51.07%; in data set [2] (45 mg/kg i.p. daily), 53.15%; in data set [2] (60 mg/kg i.p. daily) it was 68.01%. In addition, in data set [2] (30, 45 and 60 mg/kg i.p. daily, tumor-bearing mice), the body weight entry is “without loss of body weight”. The “final tumor volume and weight compared to vehicle group” value in data set [2] (TGI1002 30, 45, 60 mg/kg, imatinib, ponatinib 10 mg/kg, i.p. daily) was “markedly lower”. Further, the “sensitivity of K562 cells to treatment after SET-specific shRNA” value in data set [3] is reported as “decreased the sensitivity”.

(Values after PMC4494927, “Discovery of a small molecule targeting SET-PP2A interaction to overcome BCR-ABLT315I mutation of chronic myeloid leukemia” (Oncotarget, 2015).)
